This is an account of results in patent publication US8461107B2 (Merck Sharp & Dohme Corp., priority 2008, dated 2013).

This assay deals with T1, HCV genotype 1b (BK) NS3 modified with a R155K mutation (Hepatitis C virus genotype 1b, UniProt P26663, R1181K).
T1 construct: HCV genotype 1b (BK) NS3 modified with a R155K mutation
Nature of the assay: HCV NS3 protease time-resolved fluorescence (TRF) assay, NS3 protease 1b R155K Ki activity. Conditions: HCV genotype 1b (BK) NS3 with R155K mutation; TRF peptide substrate 100 nM; Ki derived from IC50. Type of assay: biochemical. As for the experimental part: The HCV NS3 protease inhibitory activity of the present compounds may be tested using assays known in the art. One such assay is HCV NS3 protease time-resolved fluorescence (TRF) assay as described below and in International Patent Application Publication WO 2006/102087. Other examples of such assays are described in e.g., International Patent Application Publication WO 2005/046712.
A NS3 protease assay can be performed, for example, in a final volume of 100 μl assay buffer containing 50 mM HEPES, pH 7.5, 150 mM NaCl, 15% glycerol, 0.15% TRITON X-100, 10 mM DTT, and 0.1% PEG 8000. NS3 and NS4A protease is pre-incubated with various concentrations of inhibitors in DMSO for 30 minutes. The reaction is initiated by adding the TRF peptide substrate (final concentration 100 nM). NS3 mediated hydrolysis of the substrate is quenched after 1 hour at room temperature with 100 μl of 500 mM MES, pH 5.5. Product fluorescence is detected using either a VICTOR V2 or FUSION fluorophotometer (Perkin Elmer Life and Analytical Sciences) with excitation at 340 nm and emission at 615 nm with a 400 μs delay. Testing concentrations of different enzyme forms are selected to result in a signal to background ratio (S/B) of 10-30. IC50 values are derived using a standard four-parameter fit to the data. Ki values are derived from IC50 values using the following formula, IC50=Ki(1+[S]/KM), Eqn (1), where [S] is the concentration of substrate peptide in the reaction and KM is the Michaelis constant. See P. Gallinari et al., 38 BIOCHEM. 5620-32 (1999); P. Gallinari et al., 72 J. VIROL. 6758-69 (1998); M. Taliani et al., 240 ANAL. BIOCHEM. 60-67 (1996).
The HCV NS3 protease inhibitory activity was measured using the protease time-resolved fluorescence (TRF) assay as described below and in International Patent Application Publication WO 2006/102087. The assay was performed with HCV genotype 1b (BK) NS3 modified with a R155K mutation.
The assay was performed in a final volume of 100 μl in assay buffer containing 50 mM HEPES, pH 7.5, 150 mM NaCl, 15% glycerol, 0.15% TRITON X-100, 10 mM DTT, and 0.1% PEG 8000. NS3 and NS4A protease is pre-incubated with various concentrations of inhibitors in DMSO for 30 minutes. The reaction is initiated by adding the TRF peptide substrate (final concentration 100 nM). NS3 mediated hydrolysis of the substrate is quenched after 1 hour at room temperature with 100 μl of 500 mM MES, pH 5.5. Product fluorescence is detected using either a VICTOR V2 or FUSION fluorophotometer (Perkin Elmer Life and Analytical Sciences) with excitation at 340 nm and emission at 615 nm with a 400 μs delay. Testing concentrations of the enzyme containing the R155K mutation were selected to result in a signal to background ratio (S/B) of 10-30. IC50 values are derived using a standard four-parameter fit to the data. Ki values are derived from IC50 values using the following formula, IC50=Ki(1+[S]/KM), Eqn (1), where [S] is the concentration of substrate peptide in the reaction and KM is the Michaelis constant. See P. Gallinari et al., 38 BIOCHEM. 5620-32 (1999); P. Gallinari et al., 72 J. VIROL. 6758-69 (1998); M. Taliani et al., 240 ANAL. BIOCHEM. 60-67 (1996).
With `CC[C@@H]1C[C@]1(NC(=O)[C@@H]1C[C@@H]2CN1C(=O)[C@H](C1CCCC1)NC(=O)O[C@@H]1CCC[C@H]1CC/C=C/Cn1c(nc3ccccc3c1=O)O2)C(=O)NS(=O)(=O)C1CC1` [(3aR,7S,10S,12R,22E,25aS)-7-cyclopentyl-N-((1R,2R)-1-{[(cyclopropylsulfonyl)amino]carbonyl}-2-ethylcyclopropyl)-5,8,19-trioxo-1,2,3,3a,5,6,7,8,11,12,21,24,25,25a-tetradecahydro-10H,19H-9,12-methanocyclopenta[18,19][1,10,3,6,12]dioxatriazacyclononadecino[11,12-b]quinazoline-10-carboxamide], the Ki is 0.1 to 0.5 nM.
Molecule `CC[C@@H]1C[C@]1(NC(=O)[C@@H]1C[C@@H]2CN1C(=O)[C@H](C1CCCC1)NC(=O)O[C@@H]1CCC[C@H]1CC/C=C/Cn1c(nc3cc(C(F)(F)F)ccc3c1=O)O2)C(=O)NS(=O)(=O)C1CC1` [(3aR,7S,10S,12R,22E,25aS)-7-cyclopentyl-N-((1R,2R)-1-{[(cyclopropylsulfonyl)amino]carbonyl}-2-ethylcyclopropyl)-5,8,19-trioxo-16-(trifluoromethyl)-1,2,3,3a,5,6,7,8,11,12,21,24,25,25a-tetradecahydro-10H,19H-9,12-methanocyclopenta[18,19][1,10,3,6,12]dioxatriazacyclononadecino[11,12-b]quinazoline-10-carboxamide] registered an inhibitory constant (Ki) below 0.1 nM.
Turning to `CC[C@@H]1C[C@]1(NC(=O)[C@@H]1C[C@@H]2CN1C(=O)[C@H](C1CCCC1)NC(=O)O[C@@H]1CCC[C@H]1CC/C=C/Cn1c(nc3cc(-c4ccccc4)ccc3c1=O)O2)C(=O)NS(=O)(=O)C1CC1` [(3aR,7S,10S,12R,22E,25aS)-7-cyclopentyl-N-((1R,2R)-1-{[(cyclopropylsulfonyl)amino]carbonyl}-2-ethylcyclopropyl)-5,8,19-trioxo-16-phenyl-1,2,3,3a,5,6,7,8,11,12,21,24,25,25a-tetradecahydro-10H,19H-9,12-methanocyclopenta[18,19][1,10,3,6,12]dioxatriazacyclononadecino[11,12-b]quinazoline-10-carboxamide], the Ki is 0.1 to 0.5 nM.
With `CC[C@@H]1C[C@]1(NC(=O)[C@@H]1C[C@@H]2CN1C(=O)[C@H](C1CCCC1)NC(=O)O[C@@H]1CCC[C@H]1CC/C=C/Cc1c(nc3ccccn3c1=O)O2)C(=O)NS(=O)(=O)C1CC1` [(3aR,7S,10S,12R,22E,25aS)-7-cyclopentyl-N-((1R,2R)-1-{[(cyclopropylsulfonyl)amino]carbonyl}-2-ethylcyclopropyl)-5,8,20-trioxo-1,2,3,3a,5,6,7,8,11,12,21,24,25,25a-tetradecahydro-10H,20H-9,12-methanocyclopenta[r]pyrido[1′,2′:1,2]pyrimido[4,5-k][1,10,3,6]dioxadiazacyclononadecine-10-carboxamide] the figure was 0.1 to 0.5 nM; with `CC[C@@H]1C[C@]1(NC(=O)[C@@H]1C[C@@H]2CN1C(=O)[C@H](C1CCCC1)NC(=O)O[C@@H]1CCC[C@H]1CC/C=C/Cn1c(nc3c(OC)cccc3c1=O)O2)C(=O)NS(=O)(=O)C1CC1` [(3aR,7S,10S,12R,22E,25aS)-7-cyclopentyl-N-((1R,2R)-1-{[(cyclopropylsulfonyl)amino]carbonyl}-2-ethylcyclopropyl)-15-methoxy-5,8,19-trioxo-1,2,3,3a,5,6,7,8,11,12,21,24,25,25a-tetradecahydro-10H,19H-9,12-methanocyclopenta[18,19][1,10,3,6,12]dioxatriazacyclononadecino[11,12-b]quinazoline-10-carboxamide], 0.1 to 0.5 nM; with `CC[C@@H]1C[C@]1(NC(=O)[C@@H]1C[C@@H]2CN1C(=O)[C@H](C1CCCC1)NC(=O)O[C@@H]1CCC[C@H]1CC/C=C/Cn1c(nc3cc(S(C)(=O)=O)ccc3c1=O)O2)C(=O)NS(=O)(=O)C1CC1` [(3aR,7S,10S,12R,22E,25aS)-7-cyclopentyl-N-((1R,2R)-1-{[(cyclopropylsulfonyl)amino]carbonyl}-2-ethylcyclopropyl)-16-(methylsulfonyl)-5,8,19-trioxo-1,2,3,3a,5,6,7,8,11,12,21,24,25,25a-tetradecahydro-10H,19H-9,12-methanocyclopenta[18,19][1,10,3,6,12]dioxatriazacyclononadecino[11,12-b]quinazoline-10-carboxamide], below 0.1 nM.
In the case of `CC[C@@H]1C[C@]1(NC(=O)[C@@H]1C[C@@H]2CN1C(=O)[C@H](C1CCCC1)NC(=O)O[C@@H]1CCC[C@H]1CC/C=C/Cc1c(nc3cc(OC)ccn3c1=O)O2)C(=O)NS(=O)(=O)C1CC1` [(3aR,7S,10S,12R,22E,25aS)-7-cyclopentyl-N-((1R,2R)-1-{[(cyclopropylsulfonyl)amino]carbonyl}-2-ethylcyclopropyl)-16-methoxy-5,8,20-trioxo-1,2,3,3a,5,6,7,8,11,12,21,24,25,25a-tetradecahydro-10H,20H-9,12-methanocyclopenta[r]pyrido[1′,2′:1,2]pyrimido[4,5-k][1,10,3,6]dioxadiazacyclononadecine-10-carboxamide], the Ki was 0.1 to 0.5 nM.
`CC[C@@H]1C[C@]1(NC(=O)[C@@H]1C[C@@H]2CN1C(=O)[C@H](C1CCCC1)NC(=O)O[C@@H]1CCC[C@H]1CC/C=C/Cn1c(nc3cccc(OC)c3c1=O)O2)C(=O)NS(=O)(=O)C1CC1` [(3aR,7S,10S,12R,22E,25aS)-7-cyclopentyl-N-((1R,2R)-1-{[(cyclopropylsulfonyl)amino]carbonyl}-2-ethylcyclopropyl)-18-methoxy-5,8,19-trioxo-1,2,3,3a,5,6,7,8,11,12,21,24,25,25a-tetradecahydro-10H,19H-9,12-methanocyclopenta[18,19][1,10,3,6,12]dioxatriazacyclononadecino[11,12-b]quinazoline-10-carboxamide] yielded a Ki of 0.1 to 0.5 nM.
The same measure for `C=C[C@@H]1C[C@]1(NC(=O)[C@@H]1C[C@@H]2CN1C(=O)[C@H](C1CCCC1)NC(=O)O[C@@H]1CCC[C@H]1CC/C=C/Cn1c(nc3ccccc3c1=O)O2)C(=O)NS(=O)(=O)C1CC1` [(3aR,7S,10S,12R,22E,25aS)-7-cyclopentyl-N-((1R,2S)-1-{[(cyclopropylsulfonyl)amino]carbonyl}-2-vinylcyclopropyl)-5,8,19-trioxo-1,2,3,3a,5,6,7,8,11,12,21,24,25,25a-tetradecahydro-10H,19H-9,12-methanocyclopenta[18,19][1,10,3,6,12]dioxatriazacyclononadecino[11,12-b]quinazoline-10-carboxamide]: below 0.1 nM; for `C=C[C@@H]1C[C@]1(NC(=O)[C@@H]1C[C@@H]2CN1C(=O)[C@H](C1CCCC1)NC(=O)O[C@@H]1CCC[C@H]1CC/C=C/Cn1c(nc3cc(C(F)(F)F)ccc3c1=O)O2)C(=O)NS(=O)(=O)C1CC1` [(3aR,7S,10S,12R,22E,25aS)-7-cyclopentyl-N-((1R,2S)-1-{[(cyclopropylsulfonyl)amino]carbonyl}-2-vinylcyclopropyl)-5,8,19-trioxo-16-(trifluoromethyl)-1,2,3,3a,5,6,7,8,11,12,21,24,25,25a-tetradecahydro-10H,19H-9,12-methanocyclopenta[18,19][1,10,3,6,12]dioxatriazacyclononadecino[11,12-b]quinazoline-10-carboxamide]: below 0.1 nM.
